From patent US20080300237A1, “Pharmaceutically Active Diazepanes” (priority 2005, published 2008)

Molecular target: T1, human LFA-1 (Homo sapiens, UniProt P20701)
T1 construct: endogenous in cells; host or cells: JY cells (human lymphoblastoid B cell line); The ICAM-1 fusion partner is made in the baculovirus system
Assay: In vitro cell free assay: binding of soluble human ICAM-1 to immobilized human LFA-1
Conditions: immobilized human LFA-1, biotinylated recombinant ICAM-1, read-out: IC50, inhibition of adhesion of LFA-1 to ICAM-1
Procedure: A. In Vitro TEST SYSTEM (Cell Free Assay)
The assay determines the binding of soluble human ICAM-1 to immobilized human LFA-1. LFA-1 is purified from JY cells, a human lymphoblastoid B cell-line, by immunoaffinity chromatography analogously as described by Dustin et al., J. Immunol. 148, 2654-2663, 1992. ICAM-1 mouse Cκ fusion protein (ICAM-1) is produced using the baculovirus system as described by Weitz-Schmidt et al., Anal. Biochem. 238, 184-190, 1996.
Purified LFA-1 is diluted 1:20 in phosphate buffered saline (PBS) containing 2 mM MgCl2, pH 7.4 and coated onto microtiter plates (Nunc) at 37° for 3 hours. Plates are blocked with 1% heat-treated bovine serum albumin in PBS for 2 hours at 37° followed by a washing step using PBS, 2 mM MgCl2, 1% fetal calf serum, pH 7.4 (assay buffer). Compounds of the present invention (10 mM solution in DMSO) are diluted in assay buffer and added to the plates. Biotinylated recombinant ICAM-1 in assay buffer (6 μg/ml) is added and allowed to bind at 37° for one hour. After incubation, wells are washed with assay buffer. Streptavidinperoxidase diluted 1:5000 in assay buffer is added and incubated for 45 min at 37°. […] The reaction is stopped after 20 minutes and bound ICAM-1 is determined by measuring the optical density at 405 nm in a microplate reader.

T1 sequence (P20701 26-1170): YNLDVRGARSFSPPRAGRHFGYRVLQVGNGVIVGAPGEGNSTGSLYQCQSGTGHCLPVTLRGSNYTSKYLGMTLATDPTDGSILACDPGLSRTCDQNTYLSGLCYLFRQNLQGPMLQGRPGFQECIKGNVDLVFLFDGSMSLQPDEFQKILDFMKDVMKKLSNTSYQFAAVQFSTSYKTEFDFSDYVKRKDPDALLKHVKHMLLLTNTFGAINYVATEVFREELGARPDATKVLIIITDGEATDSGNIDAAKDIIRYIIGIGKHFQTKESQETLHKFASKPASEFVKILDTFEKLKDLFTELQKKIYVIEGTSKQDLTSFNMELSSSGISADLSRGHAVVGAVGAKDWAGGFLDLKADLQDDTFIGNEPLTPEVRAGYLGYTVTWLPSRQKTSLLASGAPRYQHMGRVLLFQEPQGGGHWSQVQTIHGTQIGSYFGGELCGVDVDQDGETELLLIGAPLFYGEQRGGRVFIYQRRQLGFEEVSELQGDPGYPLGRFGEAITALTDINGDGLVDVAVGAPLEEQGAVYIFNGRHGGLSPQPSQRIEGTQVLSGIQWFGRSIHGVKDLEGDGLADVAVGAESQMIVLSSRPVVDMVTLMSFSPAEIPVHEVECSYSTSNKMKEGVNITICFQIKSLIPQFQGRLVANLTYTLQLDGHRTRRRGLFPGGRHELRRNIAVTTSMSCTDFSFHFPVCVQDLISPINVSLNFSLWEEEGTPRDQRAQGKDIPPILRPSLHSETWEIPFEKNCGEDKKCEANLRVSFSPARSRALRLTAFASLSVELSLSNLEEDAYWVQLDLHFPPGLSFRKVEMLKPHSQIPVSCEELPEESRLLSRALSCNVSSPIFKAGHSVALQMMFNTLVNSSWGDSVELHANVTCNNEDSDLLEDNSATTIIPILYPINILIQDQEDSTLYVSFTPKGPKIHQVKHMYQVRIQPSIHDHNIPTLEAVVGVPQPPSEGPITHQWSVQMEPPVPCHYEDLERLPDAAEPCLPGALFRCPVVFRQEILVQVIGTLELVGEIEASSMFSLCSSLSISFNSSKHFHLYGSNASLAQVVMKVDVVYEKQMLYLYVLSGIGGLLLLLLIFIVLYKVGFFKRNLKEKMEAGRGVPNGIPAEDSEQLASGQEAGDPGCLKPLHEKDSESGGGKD
T1 sequence (P05107 23-769 partner): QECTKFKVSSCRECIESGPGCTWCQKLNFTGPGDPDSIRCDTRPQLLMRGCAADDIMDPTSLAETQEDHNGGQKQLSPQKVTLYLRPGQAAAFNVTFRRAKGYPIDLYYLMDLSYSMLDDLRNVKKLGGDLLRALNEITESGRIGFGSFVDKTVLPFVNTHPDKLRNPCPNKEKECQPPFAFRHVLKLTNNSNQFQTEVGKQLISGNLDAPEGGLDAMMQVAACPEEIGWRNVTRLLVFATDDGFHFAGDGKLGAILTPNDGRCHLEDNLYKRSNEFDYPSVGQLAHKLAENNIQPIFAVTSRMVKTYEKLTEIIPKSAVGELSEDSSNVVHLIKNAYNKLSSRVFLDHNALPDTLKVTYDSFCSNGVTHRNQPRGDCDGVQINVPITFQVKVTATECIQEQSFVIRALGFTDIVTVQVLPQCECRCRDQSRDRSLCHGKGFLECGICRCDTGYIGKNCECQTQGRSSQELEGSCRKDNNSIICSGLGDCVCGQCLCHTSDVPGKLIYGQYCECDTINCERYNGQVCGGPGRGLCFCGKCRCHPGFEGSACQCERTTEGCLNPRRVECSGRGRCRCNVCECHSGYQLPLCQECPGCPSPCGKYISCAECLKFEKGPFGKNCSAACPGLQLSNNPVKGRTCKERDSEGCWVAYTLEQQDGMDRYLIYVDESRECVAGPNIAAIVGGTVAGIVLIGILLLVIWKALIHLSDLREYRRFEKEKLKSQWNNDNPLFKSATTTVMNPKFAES

Row | Compound | IC50
1 | C[C@@H]1CCN([C@H](Cc2cccc3ccccc23)C(N)=O)C(=O)[C@H](c2cccc(Cl)c2)N1C(=O)CNC(=O)c1ccccc1 [Example 13, N-{2-[(2S,7R)-4-((R)-1-Carbamoyl-2-naphthalen-1-yl-ethyl)-2-(3-chloro-phenyl)-7-methyl-3-oxo-[1,4]diazepan-1-yl]-2-oxo-ethyl}-benzamide] | 430 nM
2 | C[C@@H]1CCN([C@H](Cc2cccc3ccccc23)C(N)=O)C(=O)[C@H](c2cccc(Cl)c2)N1C(=O)CNC(=O)[C@@H]1CCCN1 [Example 14, (S)-Pyrrolidine-2-carboxylic acid {2-[(2S,7R)-4-((R)-1-carbamoyl-2-naphthalen-1-yl-ethyl)-2-(3-chloro-phenyl)-7-methyl-3-oxo-[1,4]diazepan-1-yl]-2-oxo-ethyl}-amide] | 90 nM
